The values that follow come from patent US20260216170A1, “TETRAHYDROISOQUINOLINE HETEROBIFUNCTIONAL BCL-XL DEGRADERS” (Treeline Biosciences, Inc., priority 2023, published 2026).

This experiment concerns the target T1, Human BCL-XL protein (N-terminal HiBiT tagged BCL-XL expressed in HT1080 cells) (Homo sapiens, UniProt Q07817).
T1 construct: expressed in transfected cells; host or cells: HT-1080 (ATCC CCL-121), stably transduced with lentivirus pLV-UBC-N-HiBiT-BCL-XL-PGK-puro and selected with puromycin
The experiment is described as follows: HiBiT Based Degradation Assay. Format: cell-based. As to conditions: 24 hours incubation; for DC50: BCL-XL degradation, HT1080 cells expressing N-HiBiT-BCL-XL, normalized with DMSO control, geometric mean for multiple data points, read-out: EC50 (24 h); for Ymin (24 h): bottom of BCL-XL degradation curve (remaining HiBiT-BCL-XL signal vs DMSO control), HT1080 cells. The procedure, abridged:
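BCL-XL degradation was read as Nano-Glo HiBiT lytic luminescence relative to DMSO after a 24 h compound treatment of HT1080 cells carrying stably integrated N-HiBiT-BCL-XL. EC50 values come from four-parameter logistic curves, with the hook-curve minimum fixed as bottom, and are geometric means where tested repeatedly.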

T1 sequence (Q07817 whole entry): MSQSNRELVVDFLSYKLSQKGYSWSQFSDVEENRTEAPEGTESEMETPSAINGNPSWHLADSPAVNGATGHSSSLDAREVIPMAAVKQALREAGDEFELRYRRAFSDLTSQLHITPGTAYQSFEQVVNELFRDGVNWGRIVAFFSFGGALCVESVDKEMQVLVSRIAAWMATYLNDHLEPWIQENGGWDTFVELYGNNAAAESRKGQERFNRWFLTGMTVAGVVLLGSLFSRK

Regarding `Cc1cc(OCCC[C@H]2CCN(CC(=O)Nc3ccc4c(C5CCC(=O)NC5=O)nn(C)c4c3)[C@@H](C)C2)ccc1-c1ccc(N2CCc3ccnc(C(=O)Nc4nc5ccccc5s4)c3C2)nc1C(=O)O` (stereo partly drawn) [Compound 219b, 6-(8-(benzo[d]thiazol-2-ylcarbamoyl)-3,4-dihydro-2,7-naphthyridin-2(1H)-yl)-3-(4-(3-((2S,4S)-1-(2-((3-(2,6-dioxopiperidin-3-yl)-1-methyl-1H-indazol-6-yl)amino)-2-oxoethyl)-2-methylpiperidin-4-yl)propoxy)-2-methylphenyl)picolinic acid], the DC50 is under 10 nM and the “Ymin (24 h)” value is listed as “A (Ymin < 30%)”.

As to `Cc1cc(OCCC[C@H]2CCN(CC(=O)Nc3ccc4c(C5CCC(=O)NC5=O)nn(C)c4c3)[C@H](C)C2)ccc1-c1ccc(N2CCc3ccnc(C(=O)Nc4nc5ccccc5s4)c3C2)nc1C(=O)O` (stereo partly drawn) [Compound 219c], the DC50 is under 10 nM and the “Ymin (24 h)” value was “A (Ymin < 30%)”.

For `Cc1cc(OCCC[C@@H]2CCN(CC(=O)Nc3ccc4c(C5CCC(=O)NC5=O)nn(C)c4c3)[C@H](C)C2)ccc1-c1ccc(N2CCc3ccnc(C(=O)Nc4nc5ccccc5s4)c3C2)nc1C(=O)O` (stereo partly drawn) [Compound 219d], the DC50 was under 10 nM and the “Ymin (24 h)” value is listed as “A (Ymin < 30%)”.

For the molecule `Cc1c(-c2ccc(N3CCc4cccc(C(=O)Nc5nc6ccccc6s5)c4C3)nc2C(=O)O)cccc1N(C)CCCC1CCN(CC(=O)Nc2ccc3c(C4CCC(=O)NC4=O)nn(C)c3c2)CC1` (stereo not drawn) [Compound 220], the DC50 was 10 to 100 nM and the “Ymin (24 h)” value is listed as “C (50% ≤ Ymin < 70%)”.

As to `Cc1cc(OC2CCC3(CC2)CCN(CC(=O)Nc2ccc4c(C5CCC(=O)NC5=O)nn(C)c4c2)CC3)ccc1-c1ccc(N2CCc3cccc(C(=O)Nc4nc5ccccc5s4)c3C2)nc1C(=O)O` (stereo not drawn) [Compound 221], the DC50 was under 10 nM and the “Ymin (24 h)” value is “A (Ymin < 30%)”.

`Cc1cc(N(C)CCCC2CCN(CC(=O)Nc3ccc4c(C5CCC(=O)NC5=O)nn(C)c4c3)CC2)ccc1-c1ccc(N2CCc3cccc(C(=O)Nc4nc5ccccc5s4)c3C2)nc1C(=O)O` (stereo not drawn) [Compound 222, 6-(8-(benzo[d]thiazol-2-ylcarbamoyl)-3,4-dihydroisoquinolin-2(1H)-yl)-3-(4-((3-(1-(2-((3-(2,6-dioxopiperidin-3-yl)-1-methyl-1H-indazol-6-yl)amino)-2-oxoethyl)piperidin-4-yl)propyl)(methyl)amino)-2-methylphenyl)picolinic acid]: the DC50 is under 10 nM and the “Ymin (24 h)” value is “A (Ymin < 30%)”.

In the case of `Cn1nc(C2CCC(=O)NC2=O)c2ccc(NC(=O)CN3CCN(CCCO[C@H]4CC[C@H](c5ccc(N6CCc7cccc(C(=O)Nc8nc9ccccc9s8)c7C6)nc5C(=O)O)CC4)CC3)cc21` (stereo partly drawn) [Compound 2001a], the DC50 was under 10 nM and the “Ymin (24 h)” value is listed as “B (30% ≤ Ymin < 50%)”.

Consider `Cc1c(OCCCCC2CCN(Cc3nc4cc(C5CCC(=O)NC5=O)ccc4n3C)CC2)cccc1-c1ccc(N2CCc3cccc(C(=O)Nc4nc5ccccc5s4)c3C2)nc1C(=O)O` (stereo not drawn) [Compound 2002], for which the DC50 is 10 to 100 nM and the “Ymin (24 h)” value is recorded as “C (50% ≤ Ymin < 70%)”.

With `Cc1cc(OCCCC2CCN(Cc3nc4ccc(C5CCC(=O)NC5=O)cc4[nH]3)CC2)ccc1-c1ccc(N2CCc3cccc(C(=O)Nc4nc5ccccc5s4)c3C2)nc1C(=O)O` (stereo not drawn) [Compound 2003], the DC50 is 10 to 100 nM and the “Ymin (24 h)” value is “C (50% ≤ Ymin < 70%)”.
